Source: PMC8404221 (European journal of pharmaceutical sciences : official …, 2021)
Where “and” joins values, the source holds several entries; their conditions need not be identical. Equal entries are not always repeated. Where two headings read alike, the source gives them in different places. Marks after values point to notes of the source that are not given here.

Legend:
DYRK1A [1] = target: T1, DYRK1A (Homo sapiens, UniProt Q13627); assay: biochemical; format: binding; details: for inhibition at 6.7 µM: read-out: DYRK1A inhibition in pilot HTS
DYRK1A [2] = target: T1, DYRK1A; assay: biochemical; format: biochemical
[3] = target: T2, Monoamine oxidase-A (MAO-A) (Homo sapiens, UniProt P21397); assay: biochemical; format: biochemical
T2 sequence (P21397 1-527): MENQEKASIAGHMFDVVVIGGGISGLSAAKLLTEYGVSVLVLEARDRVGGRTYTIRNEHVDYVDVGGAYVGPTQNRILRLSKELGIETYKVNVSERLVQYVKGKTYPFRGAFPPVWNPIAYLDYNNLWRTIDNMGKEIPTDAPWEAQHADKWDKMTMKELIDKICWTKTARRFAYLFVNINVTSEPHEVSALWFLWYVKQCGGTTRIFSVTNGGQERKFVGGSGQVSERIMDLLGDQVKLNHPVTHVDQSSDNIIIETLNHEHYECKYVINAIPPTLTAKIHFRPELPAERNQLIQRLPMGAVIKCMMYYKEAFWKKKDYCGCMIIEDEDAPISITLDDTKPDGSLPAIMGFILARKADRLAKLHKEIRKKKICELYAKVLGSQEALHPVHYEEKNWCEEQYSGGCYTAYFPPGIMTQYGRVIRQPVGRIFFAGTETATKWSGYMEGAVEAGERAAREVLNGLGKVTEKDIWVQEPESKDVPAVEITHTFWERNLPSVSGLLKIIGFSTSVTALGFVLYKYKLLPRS

H4 cells [4] = assay: PrestoBlue cell proliferation/viability assay; format: cell-based, human; details: 72 h; for IC50: Homo sapiens, read-out: H4 (cell proliferation) IC50
U87 cells [5] = assay: PrestoBlue cell proliferation/viability assay; format: cell-based, human; details: 72 h; for U87 (cell proliferation) % inhibition at highest dose tested: PrestoBlue; for IC50: Homo sapiens, U-87 MG, read-out: U87 (cell proliferation) IC50
H4 cells [6] = assay: High content imaging assay; format: cell-based, human; details: read-out: H4 (nuclear count) IC50, 72 h
U87 cells [7] = assay: High content imaging assay; format: cell-based, human; details: 72 h; for U87 (nuclear count) % inhibition at highest dose tested: Hoechst 33342 high content imaging, highest dose tested (66 μM); for IC50 / inhibition at 66 µM: Homo sapiens, U-87 MG; for IC50: read-out: U87 (nuclear count) IC50; for inhibition at 66 µM: read-out: U87 (nuclear count) % inhibition at highest dose tested
DYRK1A [8] = target: T1, DYRK1A; details: read-out: DYRK1A IC50, published values, ref Adayev et al., 2011, Bain et al., 2007, Bálint et al., 2017, Bruel et al., 2014, Foucourt et al., Göckler et al., 2009, Grabher et al., 2012, Kim et al., 2016, Kumar et al., 2018, Liu et al., 2017b, PubChem; cited from earlier work
DYRK2 = target: T3, DYRK2 (Homo sapiens, UniProt Q92630); assay: Kinase selectivity panel; details: 10 μM, n = 2
T3 sequence (Q92630 1-601): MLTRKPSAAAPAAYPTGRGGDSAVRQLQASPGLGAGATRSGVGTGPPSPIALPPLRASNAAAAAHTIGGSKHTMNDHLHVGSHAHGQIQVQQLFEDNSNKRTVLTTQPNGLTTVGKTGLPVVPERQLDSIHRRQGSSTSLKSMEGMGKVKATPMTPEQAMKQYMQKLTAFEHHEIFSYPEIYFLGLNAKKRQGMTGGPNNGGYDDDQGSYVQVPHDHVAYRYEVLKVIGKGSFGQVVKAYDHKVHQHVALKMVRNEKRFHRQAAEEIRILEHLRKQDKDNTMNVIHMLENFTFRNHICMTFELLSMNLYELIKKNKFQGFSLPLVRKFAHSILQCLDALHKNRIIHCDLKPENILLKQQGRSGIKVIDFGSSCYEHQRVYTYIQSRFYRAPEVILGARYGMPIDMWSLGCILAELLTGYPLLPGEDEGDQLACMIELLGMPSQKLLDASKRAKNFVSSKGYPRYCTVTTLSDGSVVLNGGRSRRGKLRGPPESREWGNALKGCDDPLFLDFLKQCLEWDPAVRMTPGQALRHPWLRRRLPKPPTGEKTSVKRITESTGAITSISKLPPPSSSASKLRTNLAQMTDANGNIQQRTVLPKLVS

CLK1 [9] = target: T4, CLK1 (Homo sapiens, UniProt P49759); assay: InCELL Hunter / PathHunter in-cell target engagement assay; format: cell-based; details: for Effect on β-gal activity (CLK1 target engagement): 0.5, 5 and 50 μM
[10] = test system: U87 human glioblastoma cells; assay: U87 glioma tumor xenograft in nude NU/J mice; format: in vivo; details: for Effect on body weight: up to 21 days; for Tremor activity in treated mice: anecdotal observation, duration of the study
MAO-A = details: read-out: MAO-A IC50, published, ref Bálint et al., 2017, Clarke and Ramsay, 2011, Herraiz and Brandt, 2014, Herraiz and Chaparro, 2005, Ionescu et al., 2012, Kim et al., 1997, Rahman and Rahmatullah, 2010, Reniers et al., Rommelspacher et al., 1994, Rüben et al., 2015, Santillo et al., Wurzlbauer et al., 2020; cited from earlier work
CK1α1 = CK1α1 (Homo sapiens, UniProt P48729); assay: Kinase selectivity panel; details: 10 μM, n = 2
PIM1 = PIM1 (Homo sapiens, UniProt P11309); assay: Kinase selectivity panel; details: 10 μM, n = 2
CLK1 [11] = target: T4, CLK1; assay: Kinase selectivity panel; format: biochemical; details: 10 μM, n = 2
DYRK1B = DYRK1B (Homo sapiens, UniProt Q9Y463); assay: Kinase selectivity panel; format: biochemical; details: 10 μM, n = 2
DYRK1A [12] = target: T1, DYRK1A; assay: Kinase selectivity panel; format: biochemical; details: 10 μM, n = 2
panel of 10 kinases = assay: Kinase selectivity panel; details: 10 μM
[13] = using TR-FRET DYRK1A IC50 values
[14] = DYRK1A IC50, TR-FRET, 10-point 2-fold dose response

T4 sequence (P49759 whole entry): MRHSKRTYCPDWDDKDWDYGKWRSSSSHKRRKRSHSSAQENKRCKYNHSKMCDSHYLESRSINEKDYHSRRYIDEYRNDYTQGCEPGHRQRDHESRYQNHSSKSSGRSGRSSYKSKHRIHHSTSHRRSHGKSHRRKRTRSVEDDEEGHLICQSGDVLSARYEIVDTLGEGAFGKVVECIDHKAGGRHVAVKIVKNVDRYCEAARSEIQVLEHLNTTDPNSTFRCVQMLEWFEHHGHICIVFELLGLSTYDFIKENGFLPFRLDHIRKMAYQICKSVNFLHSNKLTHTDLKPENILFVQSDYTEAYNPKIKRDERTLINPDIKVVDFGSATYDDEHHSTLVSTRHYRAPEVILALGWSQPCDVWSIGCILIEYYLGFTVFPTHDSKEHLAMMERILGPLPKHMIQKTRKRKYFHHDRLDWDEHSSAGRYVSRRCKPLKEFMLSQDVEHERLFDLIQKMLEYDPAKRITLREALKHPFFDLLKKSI
Sequence of DYRK1B (Q9Y463 whole entry): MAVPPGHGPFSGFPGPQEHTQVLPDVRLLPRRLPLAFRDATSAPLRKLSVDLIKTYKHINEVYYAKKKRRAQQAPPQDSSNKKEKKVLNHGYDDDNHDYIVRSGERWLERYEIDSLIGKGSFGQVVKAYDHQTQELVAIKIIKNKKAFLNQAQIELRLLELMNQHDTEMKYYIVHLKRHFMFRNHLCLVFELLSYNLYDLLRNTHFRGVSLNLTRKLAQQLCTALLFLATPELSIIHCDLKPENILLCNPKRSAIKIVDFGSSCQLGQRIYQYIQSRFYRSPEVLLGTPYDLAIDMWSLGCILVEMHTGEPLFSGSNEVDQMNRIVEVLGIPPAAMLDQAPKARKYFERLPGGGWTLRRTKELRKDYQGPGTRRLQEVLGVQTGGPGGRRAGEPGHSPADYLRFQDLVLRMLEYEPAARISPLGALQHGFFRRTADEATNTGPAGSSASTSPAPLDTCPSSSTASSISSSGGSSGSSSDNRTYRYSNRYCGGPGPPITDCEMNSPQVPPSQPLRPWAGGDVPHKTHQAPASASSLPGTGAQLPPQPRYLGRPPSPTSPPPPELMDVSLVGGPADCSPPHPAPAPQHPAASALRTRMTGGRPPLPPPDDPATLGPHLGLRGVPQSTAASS
Sequence of PIM1 (P11309 whole entry): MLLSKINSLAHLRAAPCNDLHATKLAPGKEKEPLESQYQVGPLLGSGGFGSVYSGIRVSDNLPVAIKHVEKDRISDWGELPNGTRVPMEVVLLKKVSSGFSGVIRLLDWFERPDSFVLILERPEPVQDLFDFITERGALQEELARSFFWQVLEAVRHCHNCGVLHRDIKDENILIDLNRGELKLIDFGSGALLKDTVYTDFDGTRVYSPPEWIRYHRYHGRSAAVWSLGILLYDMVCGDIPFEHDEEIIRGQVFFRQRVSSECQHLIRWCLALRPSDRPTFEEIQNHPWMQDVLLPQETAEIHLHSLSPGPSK
Sequence of CK1α1 (P48729 whole entry): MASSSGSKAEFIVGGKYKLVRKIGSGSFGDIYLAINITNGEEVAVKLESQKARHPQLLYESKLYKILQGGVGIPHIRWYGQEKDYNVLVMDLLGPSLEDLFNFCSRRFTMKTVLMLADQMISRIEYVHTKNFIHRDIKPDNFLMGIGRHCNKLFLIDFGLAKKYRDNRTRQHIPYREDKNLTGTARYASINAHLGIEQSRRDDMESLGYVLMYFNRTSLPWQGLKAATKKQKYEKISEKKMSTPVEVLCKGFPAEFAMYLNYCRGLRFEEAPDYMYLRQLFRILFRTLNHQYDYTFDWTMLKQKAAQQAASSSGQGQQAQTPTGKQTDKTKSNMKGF

SMILES: COc1ccc2c3c([nH]c2c1)[C@@H](C)NCC3 [Tetrahydroharmine, tetrahydroharmine]
- IC50 (DYRK1A [1]; read-out: DYRK1A IC50, TR-FRET, 10-point 2-fold dose response): 9410 nM
- IC50 (DYRK1A [1]; read-out: DYRK1A IC50, TR-FRET, 10-point 2-fold dose response, listed as tetrahydroharmine): 9400 nM
- IC50 (DYRK1A [2]; read-out: DYRK1A IC50, 33P-ATP, casein substrate, ATP 10 μM, data generated by Reaction Biology): 6420 nM
- IC50 ([3]; read-out: MAO-A IC50, MAO-A Glo): 1520 nM
- DYRK1A:MAO-A (IC50 ratio) [3, 13]: 6.2
- H4 (cell proliferation) % inhibition at highest dose tested (H4 cells [4]; PrestoBlue, highest dose tested): 38%^c
- U87 (cell proliferation) % inhibition at highest dose tested (U87 cells [5]): No inhibition ^c
- IC50 (H4 cells [6]; Hoechst 33342 high content imaging): 26900 nM
- U87 (nuclear count) % inhibition at highest dose tested (U87 cells [7]): ~50% ^c
- IC50 (DYRK1A [8]): 2990 nM
- Reduction in enzyme activity, DYRK2 (DYRK2): minimal effect

SMILES: COC(=O)[C@@]1(O)C[C@H]2O[C@]1(C)n1c3ccccc3c3c4c(c5c6ccccc6n2c5c31)C(=O)NC4 [K252a]
- EC50 (CLK1 [9]; read-out: CLK1 cellular target engagement EC50, positive control inhibitor): 8.7 nM

SMILES: COc1ccc2c(c1)[nH]c1c(C)nccc12 [Harmine, harmine, reference compound]
- inhibition at 6.7 µM (DYRK1A [1]): 74%
- IC50 (H4 cells [4]): 4900 nM
- IC50 (U87 cells [5]): > 25000 nM
- IC50 (H4 cells [6]; Homo sapiens): 14900 nM
- IC50 (U87 cells [7]): 17600 nM
- Effect on β-gal activity (CLK1 target engagement) (CLK1 [9]): increase in β-gal activity
- Tumor inhibition rate ([10]; 15 mg/kg i.p. q.d.): 16.5%
- Effect on body weight ([10]; 15 mg/kg i.p. q.d.): did not lead to significant differences in body weight
- Tremor activity in treated mice [10]: no tremor activity
- IC50 (MAO-A): 3 to 107 nM
- Reduction in enzyme activity, CK1α1 (CK1α1): ≥ 70%
- Reduction in enzyme activity, PIM1 (PIM1): ≥ 70%

SMILES: Cc1nccc2c1[nH]c1ccccc12 [Harmane, harmane]
- IC50 (DYRK1A [1]; [14]): 2680 nM
- inhibition at 6.7 µM (DYRK1A [1]): 71%
- IC50 (DYRK1A [2]): 1000 nM
- IC50 ([3]; MAO-A IC50, MAO-A Glo): 640 nM
- DYRK1A:MAO-A (IC50 ratio) [3, 13]: 4.2
- IC50 (H4 cells [4]): > 25000 nM
- U87 (cell proliferation) % inhibition at highest dose tested (U87 cells [5]): 30% ^c
- IC50 (H4 cells [6]; Homo sapiens): 17100 nM
- inhibition at 66 µM (U87 cells [7]): ~50%
- IC50 (DYRK1A [8]): 1820 nM
- IC50 (MAO-A): 29 to 337 nM

SMILES: COc1ccc2c3c([nH]c2c1)C(C)=NCC3 [Harmaline, harmaline]
- IC50 (DYRK1A [1]; [14]): 2350 nM
- inhibition at 6.7 µM (DYRK1A [1]): 81%
- IC50 (DYRK1A [2]): 790 nM
- Fold more potent on MAO-A over DYRK1A ([3]; DYRK1A TR-FRET vs MAO-A): ~ 25 fold and ~ 30 fold
- IC50 ([3]; MAO-A IC50, MAO-A Glo): 90 nM
- IC50 ([3]; MAO-A IC50, MAO-Glo): 60 to 90 nM
- DYRK1A:MAO-A (IC50 ratio) [3, 13]: 26.1
- IC50 (H4 cells [4]): 19600 nM
- U87 (cell proliferation) % inhibition at highest dose tested (U87 cells [5]): 14% ^c
- IC50 (H4 cells [6]; Homo sapiens): 14900 nM
- inhibition at 66 µM (U87 cells [7]): ~66%
- IC50 (DYRK1A [8]): 1240 to 4590 nM
- IC50 (MAO-A): 5 to 20 nM

SMILES: CC1=NCCc2c1[nH]c1cc(O)ccc21 [Harmalol, harmalol]
- Fold lower activity against DYRK1A than harmol (DYRK1A [1]): ~ 6 fold
- IC50 (DYRK1A [1]; [14]): 630 nM
- inhibition at 6.7 µM (DYRK1A [1]): 79%
- IC50 (DYRK1A [2]): 180 nM
- DYRK1A:MAO-A (IC50 ratio) [3]: 1.0
- IC50 ([3]; MAO-A IC50, MAO-A Glo): 660 nM
- Reduction in enzyme activity, CLK1 (CLK1 [11]): ~100%
- Reduction in enzyme activity, DYRK1B (DYRK1B): ~100%
- Reduction in enzyme activity, DYRK1A (panel) (DYRK1A [12]): ~100%
- IC50 (H4 cells [4]): 23700 nM
- U87 (cell proliferation) % inhibition at highest dose tested (U87 cells [5]): 37% ^c
- IC50 (H4 cells [6]; Homo sapiens): 25200 nM
- inhibition at 66 µM (U87 cells [7]): < 50%
- IC50 (MAO-A): 153 nM

SMILES: CN[C@@H]1C[C@H]2O[C@@](C)([C@@H]1OC)n1c3ccccc3c3c4c(c5c6ccccc6n2c5c31)C(=O)NC4 [Staurosporine, reference compound]
- MAO-A IC50, MAO-A Glo [3]: No inhibition

SMILES: Cc1[nH]ccc2c1[nH]c1cc(=O)ccc12 [Harmol, harmol]
- IC50 (DYRK1A [1]; [14]): 100 nM
- IC50 (DYRK1A [1]; DYRK1A IC50, TR-FRET, dose response): 70 to 100 nM
- inhibition at 6.7 µM (DYRK1A [1]): 78%
- IC50 (DYRK1A [2]): 16 nM
- Fold more potent IC50 with 33P-ATP assay versus TR-FRET (DYRK1A [2]; DYRK1A): 6–7 fold
- Fold weaker than harmine for MAO-A [3]: 10 fold
- IC50 ([3]; MAO-A IC50, MAO-A Glo): 500 nM
- DYRK1A:MAO-A (IC50 ratio) [3, 13]: 0.2
- IC50 (H4 cells [4]): 10900 nM
- IC50 (U87 cells [5]): 19100 nM
- IC50 (H4 cells [6]; Homo sapiens): 20000 nM
- IC50 (U87 cells [7]): 20800 nM
- Effect on β-gal activity (CLK1 target engagement) (CLK1 [9]): increase in β-gal activity
- Tumor inhibition rate ([10]; 15 mg/kg i.p. q.d.): 28.2%
- Effect on body weight ([10]; 15 mg/kg i.p. q.d.): did not lead to significant differences in body weight
- Tumor inhibition rate ([10]; 60 mg/kg i.p. q.d.): 38.1%
- Effect on body weight ([10]; 60 mg/kg i.p. q.d.): did not lead to significant differences in body weight
- Survival (Kaplan-Meier) compared to vehicle ([10]; 60 mg/kg i.p. q.d., not statistically significant): trend towards improved survival
- Tremor activity in treated mice [10]: no tremor activity
- Tumor growth ([10]; high dose (60 mg/kg), day 21, not reaching significance): modest decrease in tumor growth
- IC50 (DYRK1A [8]): 44 to 298 nM
- IC50 (MAO-A): 530 nM
- Number of the 10 kinases displaying 50% or greater inhibition (panel of 10 kinases): 7

SMILES: c1ccc2c(c1)[nH]c1cnccc12 [Norharmane, norharmane]
- IC50 (DYRK1A [1]; [14]): 5460 nM
- IC50 (DYRK1A [2]): 3190 nM
- IC50 (H4 cells [4]): > 25000 nM
- U87 (cell proliferation) % inhibition at highest dose tested (U87 cells [5]): No inhibition ^c
- IC50 (H4 cells [6]; Homo sapiens): 29100 nM
- U87 (nuclear count) % inhibition at highest dose tested (U87 cells [7]): No inhibition ^c
- IC50 (DYRK1A [8]): 8750 nM
